In patent US7750165B2, “Metaxalone polymorphs” (Fresenius Kabi Oncology Limited, priority 2005, dated 2010):
Values joined by “and” are separate entries in the source; they are usually repeats but may differ in a detail not shown here. Identical values can stand only once. Like-named read-outs stand apart in the source and are kept apart here. Each block holds one compound with its values, some of them ahead of it.

Experiment: Bioavailability and pharmacokinetic study of crystalline Forms A and B of metaxalone, oral suspension, plasma by HPLC
Assay type: in vivo, female wistar rat
Set-up: AUCin / AUCt / AUCt Mean / AUCin Mean: unit not given here
Protocol: A study was undertaken to compare the bioavailability and pharmacokinetic profile of the two crystalline Forms A and B of metaxalone in female wistar rat under fasting condition. A suspension of metaxalone form A and Form B having a concentration of 15.0 mg/ml was prepared using 0.1% Tween-80 in 0.25% carboxy methyl cellulose (CMC). The formulation was used for dosing as such without any further dilution.
Twelve rats were taken, out of which six rats were administered form A crystals of Metaxalone and other six rats were adminstered form B crystals of Metaxalone, in different injection volumes based on body weight, resulting in dose of 150 mg/kg. A total thirteen (0.6 ml) blood samples were collected from each rat into prelabeled tubes containing EDTA solution, by retro-orbital bleeding under mild ether anesthesia. The blood samples were withdrawn at time points of 0 (prior to dosing), 15, 30 mins, 1, 1.5, 2.0, 4.0, 6.0, 8.0, 10.0, 12.0, 24 and 48 hrs post administration. The samples were centrifuged at 4000 rpm for 10 mins at room temperature. Seperated plasma samples were transferred into prelabeled tubes and stored upright in cyrobox. These cyroboxes were then transfered into a deep freezer maintained at −20° C. for the final storage until the completion of analysis.
HPLC system of Shimadzu LC—2010CHT series equipped with shimadzu UV-VIS detector, analytical column YMC Pack ODS C-18, 5 μm, (150×4.6 mm) and a data acquisition system (LC solution software) were used for the quantitative determination of metaxalone in rat plasma.
The results were plotted using the conventional AUC method to calculate pharmacokinetic ters (Cmax, Tmax and AUC (area under the curve, a measure of total bioavailability). The pharmacokinetic results for the crystalline form A and B are summarized in Table-V

[1] = Mean of N=6 rats, female wistar rat, oral 150 mg/kg, 150 mg/kg
[2] = female wistar rats, fasting, oral 150 mg/kg, plasma, Mean ± SD (second Table IV), listed as Metaxalone- Form B, 150 mg/kg
[3] = female wistar rats, fasting, oral 150 mg/kg, plasma, Mean ± SD, 150 mg/kg
[4] = female wistar rats, fasting, oral 150 mg/kg, plasma, Mean ± SD, listed as Metaxalone- Form B, 150 mg/kg
[5] = female wistar rats, oral 150 mg/kg
[6] = individual rats 1-6, female wistar rat, oral 150 mg/kg, 150 mg/kg
[7] = individual rats 1-6, female wistar rat, oral 150 mg/kg, 150 mg/kg, in h
[8] = individual rats 1-6, female wistar rat, oral 150 mg/kg, 150 mg/kg, in µg/mL
[9] = Form A relative to Form B, per rat number 1-6, oral 150 mg/kg, 150 mg/kg
[10] = female wistar rats, fasting, oral 150 mg/kg, plasma, Mean ± SD, listed as Metaxalone- Form A, 150 mg/kg
[11] = female, Wistar, rat, plasma, po, 150 mg/kg, female wistar rats, fasting, oral 150 mg/kg, Mean ± SD

- AUCt Mean [1]: 333.329
- Tmax Mean (Mean of N=6 rats, female wistar rat, oral 150 mg/kg, 150 mg/kg, in h): 2.083
- Cmax Mean (Mean of N=6 rats, female wistar rat, oral 150 mg/kg, 150 mg/kg, in µg/mL): 40.735
- AUCinf [2]: 389.07 ± 200.6 µg·h/mL
- AUClast [2]: 333.32 ± 159.9 µg·h/mL
- AUCinf [3]: 389.07±200.6 hrμg/ml
- AUClast [3]: 333.32±159.9 hrμg/ml
- Clobs [3]: 7.8787 ± 3.578 mL/min/kg
- Cmax [3]: 40730 ± 2800 ng/mL
- Half Life [3]: 4.49 ± 1.7 h
- MRTlast [3]: 5.50 ± 1.8 h
- Tmax [3]: 2.08 ± 1.4 h
- Clobs [4]: 7.8787 ± 3.578 mL/min/kg
- Lambda z [4]: 0.172 ± 0.05 h⁻¹
- Vzobs [4]: 2.65418 ± 0.4222 L/kg
- bioavailability, based on the observed Cmax values [5]: bioavailable
- MRTlast (female wistar rats, oral 150 mg/kg, plasma, mean ± SD, unit not given, 150 mg/kg, in h): 5.50±1.8
- AUC (female, Wistar, rat, plasma, po, 150 mg/kg, Mean of N=6 rats, female wistar rat, oral 150 mg/kg, read-out: AUCin Mean): 389 µg·h/mL
- Cmax (female, Wistar, rat, plasma, po, 150 mg/kg, female wistar rats, oral 150 mg/kg, plasma, mean ± SD, no unit printed for this value, read-out: mean Cmax): 40700 ± 2800 ng/mL
- Tmax [7]: 1.00 and 4.00 and 1.50
SMILES: Cc1cc(C)cc(OCC2CNC(=O)O2)c1 (single isomer, unassigned) [Form B, 5-(3′,5′-dimethylphenoxy)methyl-2-oxazolidinone]
- AUCin [6]: 196.86 and 360.78 and 551.70 and 707.50 and 229.04 and 288.56
- AUCt [6]: 188.83 and 306.89 and 384.99 and 626.04 and 207.73 and 285.51
- Cmax [8]: 38.75 and 43.65 and 43.04 and 43.27 and 38.16 and 37.54

- AUCin Mean [1]: 451.461
- Clobs [3]: 6.164 ± 2.122 mL/min/kg
- Clobs (female wistar rats, fasting, oral 150 mg/kg, plasma, Mean ± SD, listed as Form-A, 150 mg/kg): 6.164 ± 2.122 mL/min/kg
- Clobs [10]: 6.164 ± 2.122 mL/min/kg
- Lambda z [10]: 0.119 ± 0.07 h⁻¹
- Vzobs [10]: 3.46602 ± 0.9788 L/kg
- bioavailability, based on the observed Cmax values [5]: bioavailable
- AUC(0-t) (female, Wistar, rat, plasma, po, 150 mg/kg, Mean of N=6 rats, female wistar rat, oral 150 mg/kg, read-out: AUCt Mean): 325 µg·h/mL
- Cmax (female, Wistar, rat, plasma, po, 150 mg/kg, Mean of N=6 rats, female wistar rat, oral 150 mg/kg, read-out: Cmax Mean): 37700 ng/mL
- Tmax (female, Wistar, rat, plasma, po, 150 mg/kg, Mean of N=6 rats, female wistar rat, oral 150 mg/kg, read-out: Tmax Mean): 1.5 h
- AUC(0-inf) [11]: 451 ± 166 µg·h/mL
- MRT last [11]: 5.49 ± 1.8 h
- half-life [11]: 7.25 ± 2.9 h
- AUC(0-inf) (female, Wistar, rat, plasma, po, 150 mg/kg, female wistar rats, fasting, oral 150 mg/kg, Mean ± SD (second Table IV)): 451 ± 166 µg·h/mL
- AUC(0-t) (female, Wistar, rat, plasma, po, 150 mg/kg, female wistar rats, fasting, oral 150 mg/kg, plasma, Mean ± SD (second Table IV), read-out: AUClast): 325 ± 110 µg·h/mL
- AUC(0-t) (female, Wistar, rat, plasma, po, 150 mg/kg, female wistar rats, fasting, oral 150 mg/kg, plasma, Mean ± SD, read-out: AUClast): 325 ± 110 µg·h/mL
- Cmax (female, Wistar, rat, plasma, po, 150 mg/kg, female wistar rats, fasting, oral 150 mg/kg, plasma, Mean ± SD, read-out: Cmax): 37700 ± 4100 ng/mL
- Tmax (female, Wistar, rat, plasma, po, 150 mg/kg, female wistar rats, fasting, oral 150 mg/kg, plasma, Mean ± SD, read-out: Tmax): 1.5 ± 0.3 h
- MRT last (female, Wistar, rat, plasma, po, 150 mg/kg, female wistar rats, oral 150 mg/kg, mean ± SD, unit inferred): 5.49 ± 1.8 h
- Cmax (female, Wistar, rat, plasma, po, 150 mg/kg, individual rats 1-6, female wistar rat, oral 150 mg/kg, read-out: Cmax): 43100 ng/mL
- Tmax [7]: 2.00 and 1.00
SMILES: Cc1cc(C)cc(OCC2CNC(=O)O2)c1 (single isomer, unassigned) [Form A, 5-(3′,5′-dimethylphenoxy)methyl-2-oxazolidinone]
- AUCin A/B % [9]: 328.5% and 110.5% and 69.0% and 37.7% and 291.3% and 120.9%
- AUCt A/B % [9]: 196.7% and 84.4% and 73.7% and 40.4% and 255.3% and 88.1%
- Cmax A/B % [9]: 111.2% and 77.4% and 89.4% and 90.9% and 103.7% and 85.0%
- AUCin [6]: 646.72 and 398.52 and 380.50 and 267.03 and 667.12 and 348.88
- AUCt [6]: 371.39 and 259.03 and 283.70 and 252.67 and 530.31 and 251.62
- Cmax [8]: 33.77 and 38.46 and 39.32 and 39.57 and 31.90
